Reference: ChEMBL document CHEMBL1201862, “PubChem BioAssay data set” (2004)
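Following 48 hours of exposure in 96-well plates, responses at five concentrations were used to interpolate endpoints linearly. GI50 marks 50% less growth.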 Activity calls are given as the source filed them. No stated cut-off is given here; in the data, active = GI50 up to about 1.1 µM and inactive = higher.

How the values were obtained:
Assay in all cases: DTP human tumour cell line panel, 48 h
[1] = system: HOP-62
[2] = system: SNB-75
[3] = system: NCI/ADR-RES
[4] = system: MDA-N
[5] = system: HCT-15
[6] = system: UACC-62
[7] = system: SN12C
[8] = system: UO-31
[9] = system: SW-620
[10] = system: M14
[11] = system: HT-29
[12] = system: IGROV-1
[13] = system: KM12
[14] = system: LOX IMVI
[15] = system: SNB-19
[16] = system: SF-295
[17] = system: HCT-116
[18] = system: MCF7
[19] = system: OVCAR-8
[20] = system: UACC-257

Structure (SMILES)	GI50 [1]	GI50 [2]	GI50 [3]	GI50 [4]	GI50 [5] [µM]	GI50 [6]	GI50 [7]	GI50 [8]	GI50 [9]	GI50 [10]	GI50 [11]	GI50 [12]	GI50 [13]	GI50 [14]	GI50 [15]	GI50 [16]	GI50 [17]	GI50 [18]	GI50 [19]	GI50 [20]
[O-][N+]1(CC[N+]2([O-])CCCCC2)CCCCC1	> 100 µM (inactive)	> 100 µM (inactive)	> 100 µM (inactive)	> 100 µM (inactive)	> 100	> 100 µM (inactive)	> 100 µM (inactive)	> 100 µM (inactive)	> 100 µM (inactive)	> 100 µM (inactive)	> 100 µM (inactive)	> 100 µM (inactive)	> 100 µM (inactive)	> 100 µM (inactive)	> 100 µM (inactive)	> 100 µM (inactive)	> 100 µM (inactive)	> 100 µM (inactive)	> 100 µM (inactive)	–
COc1ccc(S(=O)(=O)N/N=C/C(=O)O)cc1	678 µM (inactive)	708 µM (inactive)	490 µM (inactive)	760 µM (inactive)	542	327 µM (inactive)	475 µM (inactive)	631 µM (inactive)	485 µM (inactive)	684 µM (inactive)	336 µM (inactive)	427 µM (inactive)	557 µM (inactive)	248 µM (inactive)	706 µM (inactive)	465 µM (inactive)	445 µM (inactive)	409 µM (inactive)	499 µM (inactive)	849 µM (inactive)
C[C@@H](c1ccccc1)N1CO[C@@]2(C#Cc3ccc4c(c3)OCO4)CCC[C@@H]12	15.8 µM (inactive)	13.9 µM (inactive)	14.7 µM (inactive)	17.3 µM (inactive)	12.6	> 100 µM (inactive)	17.1 µM (inactive)	14.4 µM (inactive)	–	14.8 µM (inactive)	16.6 µM (inactive)	10.7 µM (inactive)	15.7 µM (inactive)	12.7 µM (inactive)	16.1 µM (inactive)	14.9 µM (inactive)	12 µM (inactive)	> 100 µM (inactive)	14 µM (inactive)	17.5 µM (inactive)
O=C1CCC2(CC1)Cc1ccccc1C2O (stereo unspecified)	> 100 µM (inactive)	< 0.01 µM (active)	> 100 µM (inactive)	> 100 µM (inactive)	> 100	> 100 µM (inactive)	> 100 µM (inactive)	> 100 µM (inactive)	> 100 µM (inactive)	> 100 µM (inactive)	> 100 µM (inactive)	> 100 µM (inactive)	> 100 µM (inactive)	> 100 µM (inactive)	> 100 µM (inactive)	> 100 µM (inactive)	> 100 µM (inactive)	> 100 µM (inactive)	> 100 µM (inactive)	> 100 µM (inactive)
CCP(=O)(OC)C1=CCN(C(=O)OCC[Si](C)(C)C)CC1 (stereo unspecified)	> 100 µM (inactive)	> 100 µM (inactive)	> 100 µM (inactive)	> 100 µM (inactive)	> 100	> 100 µM (inactive)	–	> 100 µM (inactive)	> 100 µM (inactive)	> 100 µM (inactive)	> 100 µM (inactive)	> 100 µM (inactive)	> 100 µM (inactive)	> 100 µM (inactive)	> 100 µM (inactive)	> 100 µM (inactive)	–	> 100 µM (inactive)	> 100 µM (inactive)	> 100 µM (inactive)
O=S(=O)(N=S(c1ccc(Cl)cc1)c1ccc(Cl)cc1)c1ccccc1	> 100 µM (inactive)	> 100 µM (inactive)	63 µM (inactive)	40.7 µM (inactive)	65.8	60.3 µM (inactive)	9.95 µM (inactive)	45.1 µM (inactive)	> 100 µM (inactive)	> 100 µM (inactive)	88.7 µM (inactive)	> 100 µM (inactive)	96.6 µM (inactive)	> 100 µM (inactive)	> 100 µM (inactive)	68.5 µM (inactive)	59.3 µM (inactive)	50.9 µM (inactive)	> 100 µM (inactive)	77.4 µM (inactive)
COc1cc(S(=O)(=O)Nc2ccc(-c3csc(/N=C\c4ccccc4)n3)cc2)ccc1Cl	41.4 µM (inactive)	62.7 µM (inactive)	> 100 µM (inactive)	39 µM (inactive)	> 100	29.9 µM (inactive)	> 100 µM (inactive)	74.3 µM (inactive)	33.5 µM (inactive)	56.1 µM (inactive)	44.2 µM (inactive)	> 100 µM (inactive)	36.4 µM (inactive)	43.9 µM (inactive)	31.6 µM (inactive)	76.9 µM (inactive)	44.8 µM (inactive)	20.5 µM (inactive)	> 100 µM (inactive)	–
CCCCC(C(=O)N/N=C/c1ccc([N+](=O)[O-])o1)C(=O)N/N=C/c1ccc([N+](=O)[O-])o1	13.1 µM (inactive)	17.9 µM (inactive)	2.64 µM (inactive)	3.53 µM (inactive)	2.26	2.91 µM (inactive)	3.66 µM (inactive)	1.99 µM (inactive)	2.54 µM (inactive)	3.81 µM (inactive)	2.14 µM (inactive)	2.17 µM (inactive)	3.66 µM (inactive)	1.84 µM (inactive)	3.64 µM (inactive)	15.7 µM (inactive)	1.36 µM (inactive)	4.51 µM (inactive)	2.05 µM (inactive)	–
O=C1c2c(ccc3c2CCCC3)CC12Cc1ccccc1C2	16.8 µM (inactive)	20.4 µM (inactive)	15.8 µM (inactive)	6.43 µM (inactive)	4.75	13.5 µM (inactive)	21.8 µM (inactive)	5.28 µM (inactive)	4.88 µM (inactive)	21 µM (inactive)	5.96 µM (inactive)	30.2 µM (inactive)	16.4 µM (inactive)	10.1 µM (inactive)	58.6 µM (inactive)	19 µM (inactive)	5.43 µM (inactive)	17 µM (inactive)	9.84 µM (inactive)	16.6 µM (inactive)
O=C1CSC2=NC3=C(COC/C3=C\c3ccc(F)cc3)C(c3ccc(F)cc3)N12 (stereo unspecified)	> 100 µM (inactive)	> 100 µM (inactive)	58.9 µM (inactive)	41.7 µM (inactive)	37.2	> 100 µM (inactive)	> 100 µM (inactive)	38.4 µM (inactive)	46 µM (inactive)	35.5 µM (inactive)	–	86.7 µM (inactive)	75 µM (inactive)	52 µM (inactive)	94.2 µM (inactive)	52.5 µM (inactive)	35.9 µM (inactive)	42 µM (inactive)	55.7 µM (inactive)	> 100 µM (inactive)
COC(=O)c1csc([C@@H](OC(=O)[C@H](C)[C@H](CCCC(C)(Cl)Cl)OC(=O)c2csc([C@H](O)CO)n2)C(C)C)n1	18.4 µM (inactive)	1.39 µM (inactive)	18.3 µM (inactive)	7.94 µM (inactive)	16.4	11.6 µM (inactive)	1.99 µM (inactive)	6.93 µM (inactive)	17.9 µM (inactive)	17.8 µM (inactive)	17.6 µM (inactive)	11.3 µM (inactive)	15.7 µM (inactive)	10.5 µM (inactive)	13.6 µM (inactive)	15.7 µM (inactive)	–	18 µM (inactive)	4.61 µM (inactive)	11 µM (inactive)
CN(C)CCOc1ccc(I)cc1Cc1ccccc1	13.9 µM (inactive)	1.52 µM (inactive)	13.8 µM (inactive)	5.31 µM (inactive)	12.2	3.28 µM (inactive)	12.1 µM (inactive)	7.69 µM (inactive)	14.2 µM (inactive)	2.66 µM (inactive)	4.36 µM (inactive)	4.6 µM (inactive)	13.7 µM (inactive)	5.2 µM (inactive)	13.7 µM (inactive)	15.4 µM (inactive)	10.6 µM (inactive)	13 µM (inactive)	16 µM (inactive)	15.2 µM (inactive)
Cc1ccc(C)n1-c1ccccc1C1SCCCS1	50.8 µM (inactive)	84.5 µM (inactive)	> 100 µM (inactive)	> 100 µM (inactive)	> 100	> 100 µM (inactive)	> 100 µM (inactive)	> 100 µM (inactive)	> 100 µM (inactive)	57.1 µM (inactive)	53.3 µM (inactive)	> 100 µM (inactive)	> 100 µM (inactive)	> 100 µM (inactive)	> 100 µM (inactive)	54.1 µM (inactive)	> 100 µM (inactive)	37.3 µM (inactive)	> 100 µM (inactive)	> 100 µM (inactive)
CC[C@@H](/C=C\CCC1(C[C@H](O)CCC=C(C)C)OCCO1)O[Si](C(C)C)(C(C)C)C(C)C	34.3 µM (inactive)	29.5 µM (inactive)	22.4 µM (inactive)	33.5 µM (inactive)	20.1	22.6 µM (inactive)	18 µM (inactive)	19.2 µM (inactive)	26.4 µM (inactive)	26.5 µM (inactive)	25 µM (inactive)	20.9 µM (inactive)	37.1 µM (inactive)	20.4 µM (inactive)	18.9 µM (inactive)	20.2 µM (inactive)	17 µM (inactive)	17.3 µM (inactive)	19.9 µM (inactive)	22.5 µM (inactive)
C=C(C)C1CC=C(C)C(=O)C1 (stereo unspecified) [CARVONE]	> 100 µM (inactive)	> 100 µM (inactive)	> 100 µM (inactive)	> 100 µM (inactive)	> 100	–	> 100 µM (inactive)	> 100 µM (inactive)	> 100 µM (inactive)	> 100 µM (inactive)	> 100 µM (inactive)	> 100 µM (inactive)	> 100 µM (inactive)	> 100 µM (inactive)	> 100 µM (inactive)	> 100 µM (inactive)	> 100 µM (inactive)	> 100 µM (inactive)	> 100 µM (inactive)	> 100 µM (inactive)
